{
  "source": "patent US20090062189A1",
  "about": "“TUMOR SUPPRESSOR PROTEIN AND NUCLEOTIDE ENCODING SAME” (priority 2006, published 2009)",
  "molecules": {"B1": {"name": "caspase-3 (enzyme, human, UniProt P42574 29-277, looked up)", "chain": "SGISLDNSYKMDYPEMGLCIIINNKNFHKSTGMTSRSGTDVDAANLRETFRNLKYEVRNKNDLTREEIVELMRDVSKEDHSKRSSFVCVLLSHGEEGIIFGTNGPVDLKKITNFFRGDRCRSLTGKPKLFIIQACRGTELDCGIETDSGVDDDMACHKIPVEADFLYAYSTAPGYYSWRNSKDGSWFIQSLCAMLKQYADKLEFMHILTRVNRKVATEFESFSFDATFHAKKQIPCIVSMLTKELYFYH"}},
  "key": {"Hep-G2 cells": {"system": "Hep-G2 cells", "test": "Immunoblotting of PDZD2 in cell lysates and sPDZD2 in conditioned media with anti-PDZD2 antibody", "assay_type": "cell-based, human", "conditions": "10 μM Z-DEVD-FMK, 48 hours, compared to Z-FA-FMK-treated cells", "excerpt": "(§1) Given that cleavage of pro-IL-16 to form the corresponding secretory IL-16 cytokine is mediated by caspase-3, we tested whether or not proteolytic cleavage of full-length PDZD2 to its secreted protein sPDZD2 is caspase-3-dependent in human prostate, breast and liver cancer cells. Human prostate cancer cell lines LNCaP.FGC (CRL-1740), DUI45 (HTB-81), PC-3 (CRL-1435), and 22Rv1 (CRL-2505), breast adenocarcinoma cell line MCF-7 (HTB-22), and hepatocellular carcinoma cell line Hep-G2 (HB-8065) were obtained from American Type Culture Collection. […] Cell lysates in sample buffer (0.2% SDS, 10% glycerol, 0.06 M Tris-HCl (pH 6.8), 100 mM DTT, and 0.01% bromophenol blue) were heated at 95° C. for 5 min. Proteins in the conditioned media were concentrated by 50-fold using YM-10 Centricons (Millipore). Samples (10 μg) were resolved by SDS-PAGE and electroblotted to PVDF membranes (Millipore). The blots were blocked with 5% non-fat milk powder in TBS-T for 1 hour at room temperature and then incubated with rabbit anti-PDZD2 antibody (1: 10,000 dilution) overnight at 4° C. After washing with TBS-T, the blots were incubated with secondary antibodies against rabbit immunoglobulin G (ZYMED Laboratories). Blots were stripped in 25 mM glycine buffer (pH 2.0) for 30 min for re-probing with α-tubulin (1:500 dilution, Santa Cruz Biotechnology). The signals were visualized by enhanced chemiluminescence Western blotting system (Amersham Biosciences) and densitometric scannings of films of the developed blot normalized against α-tubulin were determined."}, "22Rv1 cells": {"system": "22Rv1 cells", "test": "Immunoblotting of PDZD2 in cell lysates and sPDZD2 in conditioned media with anti-PDZD2 antibody", "assay_type": "cell-based, human", "conditions": "10 μM Z-DEVD-FMK, 48 hours, compared to Z-FA-FMK-treated cells", "excerpt": "as §1"}, "DU145 cells": {"system": "DU145 cells", "test": "Immunoblotting of PDZD2 in cell lysates and sPDZD2 in conditioned media with anti-PDZD2 antibody", "assay_type": "cell-based, human", "conditions": "10 μM Z-DEVD-FMK, 48 hours, compared to Z-FA-FMK-treated cells", "excerpt": "as §1"}, "PC-3 cells": {"system": "PC-3 cells", "test": "Immunoblotting of PDZD2 in cell lysates and sPDZD2 in conditioned media with anti-PDZD2 antibody", "assay_type": "cell-based, human", "conditions": "10 μM Z-DEVD-FMK, 48 hours, compared to Z-FA-FMK-treated cells", "excerpt": "as §1"}, "MCF-7 cells": {"system": "MCF-7 cells", "test": "Immunoblotting of PDZD2 in cell lysates and sPDZD2 in conditioned media with anti-PDZD2 antibody", "assay_type": "cell-based, human", "conditions": "10 μM Z-DEVD-FMK, 48 hours, compared to Z-FA-FMK-treated cells", "excerpt": "as §1"}, "[1]": {"molecular_target": "T1, PDZ domain-containing protein 2 (PDZD2), full-length, human (human) (UniProt O15018)", "T1 sequence": "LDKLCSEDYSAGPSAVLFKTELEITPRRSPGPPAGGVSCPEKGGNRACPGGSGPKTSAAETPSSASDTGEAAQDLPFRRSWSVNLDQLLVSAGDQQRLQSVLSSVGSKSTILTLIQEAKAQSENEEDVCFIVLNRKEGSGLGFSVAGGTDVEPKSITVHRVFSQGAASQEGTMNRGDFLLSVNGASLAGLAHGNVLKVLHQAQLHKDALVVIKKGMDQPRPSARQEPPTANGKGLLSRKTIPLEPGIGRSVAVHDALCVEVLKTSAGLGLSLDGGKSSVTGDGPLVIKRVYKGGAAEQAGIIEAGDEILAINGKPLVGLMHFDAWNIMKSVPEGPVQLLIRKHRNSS", "test": "cell-based or functional assay"}},
  "data": [
    {"molecule": "Z-DEVD-FMK", "values": [
      {"measurement": "increase of PDZD2 expression", "setting": "Hep-G2 cells", "result": 4.1, "unit": "fold"},
      {"measurement": "reduction of sPDZD2 secretion into conditioned media", "setting": "Hep-G2 cells; serum-free", "result": 52, "unit": "%"},
      {"measurement": "increase of PDZD2 expression", "setting": "22Rv1 cells", "result": 4.4, "unit": "fold"},
      {"measurement": "reduction of sPDZD2 secretion into conditioned media", "setting": "22Rv1 cells; serum-free", "result": 44, "unit": "%"},
      {"measurement": "increase of PDZD2 expression", "setting": "DU145 cells", "result": 3, "unit": "fold"},
      {"measurement": "reduction of sPDZD2 secretion into conditioned media", "setting": "DU145 cells; serum-free", "result": 40, "unit": "%"},
      {"measurement": "increase of PDZD2 expression", "setting": "PC-3 cells", "result": 2, "unit": "fold"},
      {"measurement": "reduction of sPDZD2 secretion into conditioned media", "setting": "PC-3 cells; serum-free", "result": 28, "unit": "%"},
      {"measurement": "increase of PDZD2 expression", "setting": "MCF-7 cells", "result": 3.5, "unit": "fold"},
      {"measurement": "reduction of sPDZD2 secretion into conditioned media", "setting": "MCF-7 cells; serum-free", "result": 57, "unit": "%"}
    ]},
    {"molecule": "B1", "values": [
      {"measurement": "increase of full-length PDZD2 in cell lysate, 22Rv1 cells, 10 µM Z-DEVD-FMK 48 h vs Z-FA-FMK", "setting": "[1]", "result": 4.4, "unit": "fold"},
      {"measurement": "increase of full-length PDZD2 in cell lysate, DU145 cells, 10 µM Z-DEVD-FMK 48 h vs Z-FA-FMK", "setting": "[1]", "result": 3, "unit": "fold"},
      {"measurement": "increase of full-length PDZD2 in cell lysate, Hep-G2 cells, 10 µM Z-DEVD-FMK 48 h vs Z-FA-FMK", "setting": "[1]", "result": 4.1, "unit": "fold"},
      {"measurement": "increase of full-length PDZD2 in cell lysate, MCF-7 cells, 10 µM Z-DEVD-FMK 48 h vs Z-FA-FMK", "setting": "[1]", "result": 3.5, "unit": "fold"},
      {"measurement": "increase of full-length PDZD2 in cell lysate, PC-3 cells, 10 µM Z-DEVD-FMK 48 h vs Z-FA-FMK", "setting": "[1]", "result": 2, "unit": "fold"},
      {"measurement": "reduction of sPDZD2 secretion into conditioned medium, 22Rv1 cells, 10 µM Z-DEVD-FMK 48 h vs Z-FA-FMK", "setting": "[1]", "result": 44, "unit": "%"},
      {"measurement": "reduction of sPDZD2 secretion into conditioned medium, DU145 cells, 10 µM Z-DEVD-FMK 48 h vs Z-FA-FMK", "setting": "[1]", "result": 40, "unit": "%"},
      {"measurement": "reduction of sPDZD2 secretion into conditioned medium, Hep-G2 cells, 10 µM Z-DEVD-FMK 48 h vs Z-FA-FMK", "setting": "[1]", "result": 52, "unit": "%"},
      {"measurement": "reduction of sPDZD2 secretion into conditioned medium, MCF-7 cells, 10 µM Z-DEVD-FMK 48 h vs Z-FA-FMK", "setting": "[1]", "result": 57, "unit": "%"},
      {"measurement": "reduction of sPDZD2 secretion into conditioned medium, PC-3 cells, 10 µM Z-DEVD-FMK 48 h vs Z-FA-FMK", "setting": "[1]", "result": 28, "unit": "%"}
    ]}
  ]
}
